Consider two molecules from patent US20260365677A1, “NEW CONTRAST AGENTS FOR USE IN DIAGNOSTIC IMAGING” (Bayer Aktiengesellschaft, priority 2022, published 2026).

The target of one series is T1, OATP1B1 (Homo sapiens, UniProt Q9Y6L6).
T1 construct: expressed in transfected cells
T1 sequence (Q9Y6L6 1-691): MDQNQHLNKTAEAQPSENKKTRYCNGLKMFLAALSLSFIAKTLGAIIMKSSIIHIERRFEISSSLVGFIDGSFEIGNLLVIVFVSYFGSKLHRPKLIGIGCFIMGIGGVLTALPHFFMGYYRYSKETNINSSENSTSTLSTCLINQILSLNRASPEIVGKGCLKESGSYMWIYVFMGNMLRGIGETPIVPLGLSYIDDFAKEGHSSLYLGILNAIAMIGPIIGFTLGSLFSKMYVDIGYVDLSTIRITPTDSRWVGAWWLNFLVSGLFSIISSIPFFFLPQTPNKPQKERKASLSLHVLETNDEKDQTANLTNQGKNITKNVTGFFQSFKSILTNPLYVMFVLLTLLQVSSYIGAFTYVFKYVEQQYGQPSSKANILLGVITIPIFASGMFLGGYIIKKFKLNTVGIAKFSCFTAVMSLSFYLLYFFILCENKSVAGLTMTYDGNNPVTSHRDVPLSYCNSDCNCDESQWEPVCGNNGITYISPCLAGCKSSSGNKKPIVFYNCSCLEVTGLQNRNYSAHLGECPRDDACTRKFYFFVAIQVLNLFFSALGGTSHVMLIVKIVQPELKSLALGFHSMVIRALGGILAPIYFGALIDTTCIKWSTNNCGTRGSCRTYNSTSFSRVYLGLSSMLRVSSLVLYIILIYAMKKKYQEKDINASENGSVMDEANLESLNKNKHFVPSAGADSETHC
Nature of the series: Uptake into stable transfected OATP1B1 HEK 293 cells. Particulars: 100 μM, 40 min, relative to RC1 (Gd-EOB-DTPA). The class given is cell-based. How it is done:
Human stable transfected OATP1 B1 human embryonic kidney 293 cells (OATP1 B1 HEK 293, SLCO1B1, Entrez Gene ID: 10599) were used (Leonhardt M et al. Drug Metab Dispos. 2010 July; 38(7):1024-8). The following culture medium was used: 500 mL DMEM (Dulbecco's Modified Eagle Medium—high Glucose, D6429), 50 mL FCS (fetal bovine serum, Fa. Sigma, F7524), 5.8 mL G418 (Geneticin, Fa. Gibco 10131-027) and 5 mL Pen-Strep. (Penicillin-Streptomycin, Fa. Gibco, Ref 15140-122). Cryopreserved cells were shortly thawed in water bath and diluted in 10 mL warm culture medium (37 °C). After medium change the cells were grown for 3d in a 25 cm^2 cell culture flask. After 3 to 5d the cells were transferred into 75 cm^2 flasks. For the splitting the cells were incubated with 1.5 mL trypsin (Trypsin-EDTA (1×) 0.05%, Ref 25300-054 100 ml, Fa. Gibco) for 3-5 min in the incubator (37 °C, 5% CO2 and 95% oxygen). After centrifugation and washing with medium the cells were counted (50 μL cell suspension and 50 μL trypan blue (Trypan Blue Solution, 93595-50 ml, Fa. Fluka). Cells were cultured (1×10^5 cells/well) in poly-D-lysine coated 24-well plates (Fa. Corning, Ref: 354414) in 1.5 mL medium per well. After 48 h in the incubator the medium was changed and 1.5 mL/well sodium butyrate containing medium were added (40 mL culture medium plus 400 μL Na-Butyrate, Fa. Sigma Aldrich B5887-5G, 250 mg in 2.27 mL MilliQ water). After 24 h in the incubator the medium was vacuumed off and 1.5 mL transport buffer was added and incubated for 10 min. The transport buffer contains the following ingredients: 500 mL HBSS (Hank's balanced salt solution, Hyclone, SH30268.01), 5 mL HEPES buffer (4-(2-hydroxyethyl)-1-piperazine-ethanesulfonic acid, Gibco 15630-056) and 3.9 mL glucose (Sigma, G8270-100, 90 g/200 mL MilliQ water). All test items were prepared in transport buffer at a final concentration of 100 μM from stock solutions (180 to 500 mM concentration). The OATP1B1 HEK 293 cells were incubated with test solutions (test item in transport buffer 500 μL) for 40 min on a thermoshaker without shaking (PHMP, Fa. Grant Bio). Triplicates were performed for each test item. After incubation the cells were washed with 2 mL of cold PBS (+) buffer (Dulbeccos PBS+, Fa. Gibco). […] As a reference standard Gd-EOB-DTPA (gadoxetate) is used in the same well plate. The OATP1B1 HEK 293 uptake of the test compound is calculated relative to gadoxetate (resulting in the unit % of RC1).

Series [1] in a line: Relaxivity measurements at 1.41 T in water and human plasma. Format: physicochemical. As to conditions: 37 °C, normalized to Gd. How it is done:
Relaxivity measurements at 1.41 T were performed using a MiniSpec mq60 spectrometer (Bruker Analytik, Karlsruhe, Germany) operating at a resonance frequency of 60 MHz and a temperature of 37 °C. The T1 relaxation times were determined using the standard inversion recovery (IR) method with a fixed relaxation delay of at least 5×T1. The variable inversion time (TI) was calculated automatically by the standard software of the MiniSpec mq60 (8 steps). The T2 measurements were performed by using a Carr-Purcell-Meiboom-Gill (CPMG) pulse sequence, applying a relaxation delay of at least 5×T1.
Each relaxivity measurement was performed using three different Gd concentrations (3 concentrations between 0.05 and 2 mM). The T1 and T2 relaxation times of the example compounds 1 to 10 were measured in different media for example in water and human plasma. Human plasma preparation: For each experiment fresh blood was taken from a volunteer using 10 mL citrate-tubes (Sarstedt S-Monovette 02.1067.001, 10 mL, Citrate). The 10 mL citrate-tubes were carefully inverted 10 times to mix blood and anticoagulant and centrifuged for 15 min at 1811 g at RT (Eppendorf, Centrifuge 5810R).
The relaxivities ri (where i=1, 2) were calculated based on the measured relaxation rates R, in water and plasma:
where Ri(0) represent the relaxation rate of the respective solvent and CGd the concentration of the compound normalized to the Gadolinium. The Gadolinium concentrations of the investigated solutions were verified by Inductively Coupled Plasma Mass Spectrometry (ICP-MS Agilent 7500a, Waldbronn, Germany).

For series [2], the system named is freshly isolated rat hepatocytes. Nature of the series: Uptake into freshly isolated rat hepatocytes. The class given is cell-based. As to conditions: 100 μmol Gd/L, 10 min, 37 °C, relative to RC1 (Gd-EOB-DTPA). How it is done: Triplicates were performed for each test item.

Regarding `CCOCCOCCOc1ccc(C[C@H]2CN(CC(=O)[O-])CCN(CC(=O)[O-])CCN(CC(=O)O)CCN2CC(=O)[O-])cc1.[Gd+3]` [Example 2, Gadolinium-2,2′,2″-[(2S)-10-(carboxymethyl)-2-{4-[2-(2-ethoxyethoxy)ethoxy]benzyl}-1,4,7,10-tetraazacyclododecane-1,4,7-triyl]triacetate], the “Uptake into OATP1B1-HEK 293 cells” value at OATP1B1 is listed as 282 % of RC1. In series [1], this molecule had a r1 human plasma of 5.9 L/mmol/s and a r1 water of 4.9 L/mmol/s. Moreover, the Uptake rat hepatocytes in series [2] is 65 % of RC1.
The corresponding values for `COCCOCCOCCOc1ccc(C[C@H]2CN(CC(=O)[O-])CCN(CC(=O)[O-])CCN(CC(=O)O)CCN2CC(=O)[O-])cc1.[Gd+3]` [Example 1, Gadolinium-2,2′,2″-[(2S)-10-(carboxymethyl)-2-(4-{2-[2-(2-methoxyethoxy)-ethoxy]ethoxy}benzyl)-1,4,7,10-tetraazacyclododecane-1,4,7-triyl]triacetate] are 143 % of RC1, 6.6 L/mmol/s, 5.1 L/mmol/s and 47 % of RC1.
